Results as given in paper PMC12062478, “Screening herbal and natural product libraries to aid discovery of novel allosteric modulators of human P2X7” (Purinergic Signalling, 2024).

Assays:
HEK-293 cells = test: Cell viability assay (AlamarBlue) in non-transfected HEK-293 cells; assay type: cell-based, human; conditions: 10 µM, 24 h
Experimental: Cells were plated at 2 × 10^4 cells/well in Nunc 96-well plates (Fisher Scientific #167-008) 24 h prior to stimulation with ATP 500 µM or 3 mM in combination with identified positive or negative crude plant extracts, respectively, or with purified compounds (10 µM) for 24 h. Following incubation, resazurin (0.1 mg/mL in PBS, Sigma-Aldrich) was added to cells for 2 h at 37 °C and fluorescence was measured on a Flexstation 3 plate reader (excitation 570 nm; emission 600 nm).
(§1) Fig. 6 Dioscin enhances P2X7-dependent pore formation and potentiates channel opening. A Dioscorea nipponica (organic) plant extract (30 µg/mL) increased ATP-dependent YO-PRO-1 iodide uptake. AZ10606120 (10 µM, grey bars) was added to block hP2X7. B YO-PRO-1 uptake following a co-stimulation of HEK-hP2X7 cells with 200 µM ATP ± the named compounds in the presence or absence of AZ10606120. YO-PRO-1 uptake was quantified between 50 and 300 s (n = 5). C Whole-cell patch-clamp recordings were performed at room temperature. Cells were voltage-clamped at − 60 mV, and responses to a 5-s stimulation of ATP (100 µM) followed by a 5-s stimulation of ATP (100 µM) + dioscin/diosgenin (10 µM) were measured from HEK-hP2X7 cells. Representative traces are shown. D Summary of normalised current amplitudes represented as a fold change compared to ATP responses in the absence of dioscin/diosgenin (n = 10–18 cells). […]

HEK293 cells = test: Propidium iodide staining of HEK293 cells (membrane permeabilisation); assay type: cell-based, human
Experimental: Fig. 6 Dioscin enhances P2X7-dependent pore formation and potentiates channel opening. A Dioscorea nipponica (organic) plant extract (30 µg/mL) increased ATP-dependent YO-PRO-1 iodide uptake. AZ10606120 (10 µM, grey bars) was added to block hP2X7. B YO-PRO-1 uptake following a co-stimulation of HEK-hP2X7 cells with 200 µM ATP ± the named compounds in the presence or absence of AZ10606120. YO-PRO-1 uptake was quantified between 50 and 300 s (n = 5). C Whole-cell patch-clamp recordings were performed at room temperature. Cells were voltage-clamped at − 60 mV, and responses to a 5-s stimulation of ATP (100 µM) followed by a 5-s stimulation of ATP (100 µM) + dioscin/diosgenin (10 µM) were measured from HEK-hP2X7 cells. Representative traces are shown. D Summary of normalised current amplitudes represented as a fold change compared to ATP responses in the absence of dioscin/diosgenin (n = 10–18 cells). E Concentration response to ATP in the presence of dioscin (10 µM, green) or vehicle (DMSO, black) using YO-PRO-1 uptake assay in HEK-hP2X7 and F HEK-293 cells. […] H HEK-293 cells were treated with dioscin or CK (10 µM) for 10 min and stained with propidium iodide to reveal permeabilised cells. Images taken with EVOS microscope

[1] = system: non-transfected HEK-293 cells; test: YO-PRO-1 dye uptake in non-transfected HEK-293 cells; assay type: cell-based, human; conditions: 10 µM, in the presence of ATP
Experimental: HEK-hP2X7 or HEK-hP2X4 cells were plated at 2.5 × 10^4 cells per well (100 µL volume) the day before experiments into poly-D-lysine (Merck Millipore) coated 96-well plates (NUNC, Fisher Scientific #167-008). The membrane impermeant dye YO-PRO-1 iodide (Life Technologies, Fisher Scientific) was used at a final concentration of 2 µM in low divalent buffer (145 mM NaCl, 5 mM KCl, 0.2 mM CaCl2, 13 mM glucose, 10 mM HEPES, pH 7.3, osm 300–310). Media were removed from the plate, and 90 µL of YO-PRO-1 buffer was added per well. Plates were warmed to 37 °C for 5 min before recording. Data was acquired on a Flexstation 3 plate reader (Molecular Devices) using excitation wavelength 490 nm, emission wavelength 520 nm, and six reads per well (PMT medium). Compounds or plant extracts at 10X final concentration were automatically injected at 30 s, and then, ATP was automatically injected at 90 s from a 96-well V-bottomed drug plate (Greiner). This enabled cells to be pre-treated with compounds/plant extracts for 60 s before the agonist was injected. […]
Fig. 6 Dioscin enhances P2X7-dependent pore formation and potentiates channel opening. […] YO-PRO-1 uptake was quantified between 50 and 300 s (n = 5). […] Cells were voltage-clamped at − 60 mV, and responses to a 5-s stimulation of ATP (100 µM) followed by a 5-s stimulation of ATP (100 µM) + dioscin/diosgenin (10 µM) were measured from HEK-hP2X7 cells. […]

hP2X7 = target: T1, hP2X7 (Homo sapiens, UniProt Q99572); test: Whole-cell patch-clamp electrophysiology in HEK-hP2X7 cells; assay type: cell-based
T1 sequence (Q99572 1-595): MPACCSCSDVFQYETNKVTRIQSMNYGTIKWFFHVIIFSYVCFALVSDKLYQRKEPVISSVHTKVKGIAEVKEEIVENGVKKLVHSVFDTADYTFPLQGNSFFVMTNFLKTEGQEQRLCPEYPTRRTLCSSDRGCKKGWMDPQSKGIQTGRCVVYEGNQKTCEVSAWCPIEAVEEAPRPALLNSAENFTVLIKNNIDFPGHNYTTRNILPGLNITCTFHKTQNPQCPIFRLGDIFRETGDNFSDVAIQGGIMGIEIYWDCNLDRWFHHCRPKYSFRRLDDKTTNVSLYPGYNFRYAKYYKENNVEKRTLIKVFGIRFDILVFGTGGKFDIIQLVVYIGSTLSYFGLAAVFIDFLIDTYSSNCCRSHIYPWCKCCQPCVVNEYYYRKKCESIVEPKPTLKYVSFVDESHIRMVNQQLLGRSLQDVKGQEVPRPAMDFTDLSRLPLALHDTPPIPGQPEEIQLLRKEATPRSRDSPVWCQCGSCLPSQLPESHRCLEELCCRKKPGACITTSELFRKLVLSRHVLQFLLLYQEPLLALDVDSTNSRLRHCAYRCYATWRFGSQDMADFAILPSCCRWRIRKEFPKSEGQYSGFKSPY
Experimental: Stably expressing HEK-hP2X7 cells were plated onto 13-mm glass coverslips 24 h prior to use. Membrane currents were recorded in the whole-cell patch-clamp configuration using an EPC10 amplifier (HEKA Elektronik) and borosilicate glass electrodes (TF-150 World Precision Instruments), resistance […] when filled with standard internal solution (145 mM NaCl, 10 mM HEPES, 10 mM EGTA, pH 7.3). Cells were voltage-clamped at − 60 mV, and dialysis of intracellular contents was performed for 1 min prior to experimental procedures. Cells were continuously perfused by gravity feed with standard divalent buffer solution (145 mM NaCl, 5 mM KCl, 2 mM CaCl2, 1 mM MgCl2, 13 mM glucose, 10 mM HEPES, pH 7.3) prior to seal formation, and low divalent buffer solution was used for agonist and PAM application. Agonists were applied using a computer-controlled fast-flow system (RSC-160; Bio-Logic Scientific Instruments) with the perfusion capillaries placed in close proximity to the cell under investigation.
as §1, with “cells). E Concentration response to ATP in the presence of dioscin (10 µM, green) or vehicle (DMSO, black) using YO-PRO-1 uptake assay in HEK-hP2X7 and F HEK-293 cells.” for “cells).”

P2X7 = target: T2, P2X7 (Homo sapiens, UniProt Q99572); test: ATP-induced YO-PRO-1 dye uptake in HEK-hP2X7 cells; assay type: cell-based
T2 construct: expressed in transfected cells
T2 sequence (Q99572 1-595): T1 sequence (Q99572 1-595)
Experimental: HEK-hP2X7 or HEK-hP2X4 cells were plated at 2.5 × 10^4 cells per well (100 µL volume) the day before experiments into poly-D-lysine (Merck Millipore) coated 96-well plates (NUNC, Fisher Scientific #167-008). The membrane impermeant dye YO-PRO-1 iodide (Life Technologies, Fisher Scientific) was used at a final concentration of 2 µM in low divalent buffer (145 mM NaCl, 5 mM KCl, 0.2 mM CaCl2, 13 mM glucose, 10 mM HEPES, pH 7.3, osm 300–310). Media were removed from the plate, and 90 µL of YO-PRO-1 buffer was added per well. Plates were warmed to 37 °C for 5 min before recording. Data was acquired on a Flexstation 3 plate reader (Molecular Devices) using excitation wavelength 490 nm, emission wavelength 520 nm, and six reads per well (PMT medium). […] […] Pipette height was set to 80 µL and the rate of injection was 4.
YO-PRO-1 dye uptake assay data is plotted as a percentage of control where control responses are measured in the absence of plant extract. Cell viability data is plotted as a percentage of control or background-corrected fluorescence data. Concentration–response graphs were plotted using GraphPad Prism v6 with a non-linear regression fit (variable slope). IC50 values were generated from collated datasets from a minimum of three independent experiments. Statistical differences were determined by one-way ANOVA statistical tests performed using GraphPad Prism v6 with Dunnett’s multiple comparison post hoc test. Significance was taken as P ≤ 0.05.
We acquired a natural product library (Set IV) containing 419 compounds from NCI DTP and tested these on P2X7 responses using a YO-PRO-1 dye uptake in HEK293 cells stably expressing human P2X7 (HEK-hP2X7). […] This allowed us to assess for any immediate effect of the injected compound, and secondly, it allowed for any potential negative modulators to be pre-incubated with P2X7.

[2] = Cytotoxicity of purified glycoside (data not shown); assay type: cell-based

Row | SMILES | Cell death in non-transfected HEK-293 cells (HEK-293 cells) | Application time after which membrane permeabilisation was observed (HEK293 cells) | Propidium iodide staining (HEK293 cells; 10 µM, within 10 min of addition) | YO-PRO-1 dye uptake in non-transfected cells [1] | Potentiation of hP2X7 ion channel opening (hP2X7; 10 µM with ATP 100 µM, 5-s application, −60 mV) | Ion channel opening by compound alone (hP2X7; short 5-s application) | Sensitivity of the potentiated ATP response to P2X7 antagonist AZ10606120 (P2X7; AZ10606120 10 µM) | Effect on YO-PRO-1 dye uptake with 200 µM ATP (P2X7; co-stimulation with 200 µM ATP) | Effect on ATP concentration–response curve (P2X7; compound 10 µM) | Effect on P2X7 responses (P2X7; purified glycosides/aglycone from potentiating extracts) | Cytotoxicity [2]
1 | C[C@@H]1CC[C@@]2(OC1)O[C@H]1C[C@H]3[C@@H]4CC=C5C[C@@H](O[C@@H]6O[C@H](CO)[C@@H](O[C@@H]7O[C@@H](C)[C@H](O)[C@@H](O)[C@H]7O)[C@H](O)[C@H]6O[C@@H]6O[C@@H](C)[C@H](O)[C@@H](O)[C@H]6O)CC[C@]5(C)[C@H]4CC[C@]3(C)[C@H]1[C@@H]2C [Dioscin, dioscin] | induce cell death | > 10 min | induce propidium iodide staining | increase YO-PRO-1 dye uptake in non-transfected HEK-293 cells in the presence of ATP | could potentiate hP2X7 ion channel opening | not inducing ion channel opening itself | could be reduced with AZ10606120 | able to enhance YO-PRO-1 dye uptake | increase in the maximum response with no leftward shift | could effectively potentiate P2X7 responses | –
2 | CC1(C)CC[C@]2(C(=O)O)CC[C@]3(C)C(=CC[C@@H]4[C@@]5(C)CC[C@H](O[C@@H]6O[C@H](C(=O)O)[C@@H](O)[C@H](O[C@@H]7OC[C@@H](O)[C@H](O)[C@H]7O)[C@H]6O)C(C)(C)[C@@H]5CC[C@]43C)[C@@H]2C1 [Momordin Ic, momordin Ic] | – | – | – | – | – | – | – | – | – | – | high level of cytotoxicity
